# Experimental data reported in patent US10231954B2, “Neurodegenerative therapies” (LYTIX BIOPHARMA AS, priority 2014, dated 2019).
# Columns and labels:
# Assay type in all cases: biochemical
# MST2 = target: T1, MST2 (Homo sapiens, UniProt Q13188); experiment: Kinase profiling MST2
# T1 sequence (Q13188 1-491): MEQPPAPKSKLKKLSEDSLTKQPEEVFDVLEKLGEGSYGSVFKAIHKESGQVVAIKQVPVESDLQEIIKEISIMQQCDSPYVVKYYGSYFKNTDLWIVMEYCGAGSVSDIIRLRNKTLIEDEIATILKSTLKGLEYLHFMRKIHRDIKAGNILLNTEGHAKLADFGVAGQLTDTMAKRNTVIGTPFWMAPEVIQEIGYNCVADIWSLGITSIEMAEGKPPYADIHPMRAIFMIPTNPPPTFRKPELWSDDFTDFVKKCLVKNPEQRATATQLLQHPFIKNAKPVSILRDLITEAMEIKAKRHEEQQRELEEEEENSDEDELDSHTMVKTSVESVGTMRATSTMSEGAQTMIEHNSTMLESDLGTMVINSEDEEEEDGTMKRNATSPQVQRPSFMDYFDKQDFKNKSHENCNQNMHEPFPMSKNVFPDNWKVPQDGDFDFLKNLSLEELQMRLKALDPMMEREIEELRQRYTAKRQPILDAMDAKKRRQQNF
# Excerpt: (§1) Any value less that 25 is considered to be highly significant inhibition.
# IGF-1R = IGF-1R (Homo sapiens, UniProt P08069); experiment: Kinase profiling IGF-1R
# Excerpt: as §1
# HER4 = HER4 (Homo sapiens, UniProt Q15303); experiment: Kinase profiling HER4
# Excerpt: as §1
# JNK1 = JNK1 (Homo sapiens, UniProt P45983); experiment: Kinase profiling JNK1
# Excerpt: as §1
# MLK3 = MLK3 (Homo sapiens, UniProt Q16584); experiment: Kinase profiling MLK3
# Sequence of MLK3 (Q16584 whole entry, species assumed): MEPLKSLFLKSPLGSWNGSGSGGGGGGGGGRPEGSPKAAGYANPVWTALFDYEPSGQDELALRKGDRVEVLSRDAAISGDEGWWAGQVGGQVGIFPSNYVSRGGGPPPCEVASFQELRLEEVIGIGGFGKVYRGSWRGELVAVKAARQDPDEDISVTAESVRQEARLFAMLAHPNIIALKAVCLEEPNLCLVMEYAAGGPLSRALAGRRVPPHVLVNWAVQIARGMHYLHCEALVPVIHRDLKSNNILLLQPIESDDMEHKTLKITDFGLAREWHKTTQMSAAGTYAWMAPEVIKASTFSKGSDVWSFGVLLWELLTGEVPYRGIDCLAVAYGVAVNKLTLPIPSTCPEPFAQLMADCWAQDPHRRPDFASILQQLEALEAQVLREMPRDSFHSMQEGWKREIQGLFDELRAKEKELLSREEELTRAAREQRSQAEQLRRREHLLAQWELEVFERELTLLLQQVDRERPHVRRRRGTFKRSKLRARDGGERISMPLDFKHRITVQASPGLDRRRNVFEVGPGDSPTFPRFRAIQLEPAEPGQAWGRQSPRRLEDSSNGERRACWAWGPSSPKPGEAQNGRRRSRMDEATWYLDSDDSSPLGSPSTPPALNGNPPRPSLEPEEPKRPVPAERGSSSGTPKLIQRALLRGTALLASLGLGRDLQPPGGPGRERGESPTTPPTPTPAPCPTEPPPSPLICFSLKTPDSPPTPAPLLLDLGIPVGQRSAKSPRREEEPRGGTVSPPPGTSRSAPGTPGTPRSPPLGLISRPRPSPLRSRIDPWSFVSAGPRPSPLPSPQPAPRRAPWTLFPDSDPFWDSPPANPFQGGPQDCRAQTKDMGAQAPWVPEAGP
# Excerpt: as §1
# PAK4 = PAK4 (Homo sapiens, UniProt O96013); experiment: Kinase profiling PAK4
# Sequence of PAK4 (O96013 whole entry, species assumed): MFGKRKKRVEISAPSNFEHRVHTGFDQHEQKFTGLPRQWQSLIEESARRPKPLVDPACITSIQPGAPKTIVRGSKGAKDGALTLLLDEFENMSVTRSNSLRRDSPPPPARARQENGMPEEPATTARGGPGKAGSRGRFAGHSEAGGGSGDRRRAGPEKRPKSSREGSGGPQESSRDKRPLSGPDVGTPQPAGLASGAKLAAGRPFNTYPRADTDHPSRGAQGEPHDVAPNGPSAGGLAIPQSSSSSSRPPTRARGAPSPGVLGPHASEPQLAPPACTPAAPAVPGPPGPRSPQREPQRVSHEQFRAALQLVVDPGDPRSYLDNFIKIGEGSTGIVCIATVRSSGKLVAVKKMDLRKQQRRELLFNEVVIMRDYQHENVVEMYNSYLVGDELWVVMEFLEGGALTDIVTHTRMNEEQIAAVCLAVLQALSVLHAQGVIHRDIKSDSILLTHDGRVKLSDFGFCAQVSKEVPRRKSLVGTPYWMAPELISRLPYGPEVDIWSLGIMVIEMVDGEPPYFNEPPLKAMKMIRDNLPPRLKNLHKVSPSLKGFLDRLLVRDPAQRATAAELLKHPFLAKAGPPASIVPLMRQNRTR
# Excerpt: as §1
# SYK = SYK (Homo sapiens, UniProt P43405); experiment: Kinase profiling SYK
# Excerpt: as §1
# IRAK4 = target: T2, IRAK4 (Homo sapiens, UniProt Q9NWZ3); experiment: Kinase profiling IRAK4
# T2 sequence (Q9NWZ3 1-460): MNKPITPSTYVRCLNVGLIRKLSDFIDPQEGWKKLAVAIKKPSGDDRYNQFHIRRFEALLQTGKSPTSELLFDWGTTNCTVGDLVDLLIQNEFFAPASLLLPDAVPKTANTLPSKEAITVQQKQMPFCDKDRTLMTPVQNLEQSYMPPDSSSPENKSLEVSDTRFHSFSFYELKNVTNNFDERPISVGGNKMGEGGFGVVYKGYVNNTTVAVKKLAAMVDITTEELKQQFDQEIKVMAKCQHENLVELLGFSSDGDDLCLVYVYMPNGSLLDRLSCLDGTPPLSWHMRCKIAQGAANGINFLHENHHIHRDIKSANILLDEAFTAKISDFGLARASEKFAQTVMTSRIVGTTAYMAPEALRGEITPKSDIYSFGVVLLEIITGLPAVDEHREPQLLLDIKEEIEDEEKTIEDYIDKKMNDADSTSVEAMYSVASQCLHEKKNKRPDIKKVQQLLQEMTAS
# Excerpt: as §1
# TAK1 = target: T3, TAK1 (Homo sapiens, UniProt O43318); experiment: Kinase profiling TAK1
# T3 sequence (O43318 1-303 limits assumed): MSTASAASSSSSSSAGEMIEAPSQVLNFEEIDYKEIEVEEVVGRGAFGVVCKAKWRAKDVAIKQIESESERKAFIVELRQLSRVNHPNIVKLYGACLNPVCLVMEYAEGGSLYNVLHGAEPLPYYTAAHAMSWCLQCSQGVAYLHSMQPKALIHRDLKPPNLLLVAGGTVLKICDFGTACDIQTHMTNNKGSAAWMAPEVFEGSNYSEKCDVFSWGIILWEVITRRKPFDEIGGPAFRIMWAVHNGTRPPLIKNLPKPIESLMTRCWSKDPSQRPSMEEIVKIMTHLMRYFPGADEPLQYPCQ
# T3 sequence (Q15750 437-504 partner limits assumed): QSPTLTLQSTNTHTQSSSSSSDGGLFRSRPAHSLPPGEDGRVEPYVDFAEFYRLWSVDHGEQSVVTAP
# Excerpt: as §1
# S6K1 = S6K1 (Homo sapiens, UniProt P23443); experiment: Kinase profiling S6K1
# Sequence of S6K1 (P23443 whole entry, species assumed): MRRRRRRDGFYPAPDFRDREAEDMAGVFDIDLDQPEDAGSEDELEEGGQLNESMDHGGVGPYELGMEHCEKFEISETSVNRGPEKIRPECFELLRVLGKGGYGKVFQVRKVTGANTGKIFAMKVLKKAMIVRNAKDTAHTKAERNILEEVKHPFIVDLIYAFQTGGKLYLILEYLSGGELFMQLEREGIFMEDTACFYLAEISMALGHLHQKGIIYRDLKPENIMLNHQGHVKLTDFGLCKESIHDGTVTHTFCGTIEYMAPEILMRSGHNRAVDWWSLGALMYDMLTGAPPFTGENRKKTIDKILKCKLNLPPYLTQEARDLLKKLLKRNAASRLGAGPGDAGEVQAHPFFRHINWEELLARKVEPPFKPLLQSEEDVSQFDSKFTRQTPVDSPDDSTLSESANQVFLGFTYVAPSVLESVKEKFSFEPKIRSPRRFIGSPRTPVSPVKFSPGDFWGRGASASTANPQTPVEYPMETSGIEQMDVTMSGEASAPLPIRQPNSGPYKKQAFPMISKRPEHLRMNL
# Excerpt: as §1
# SmMLCK = SmMLCK (Homo sapiens, UniProt Q15746); experiment: Kinase profiling SmMLCK
# Sequence of SmMLCK (Q15746 923-1914): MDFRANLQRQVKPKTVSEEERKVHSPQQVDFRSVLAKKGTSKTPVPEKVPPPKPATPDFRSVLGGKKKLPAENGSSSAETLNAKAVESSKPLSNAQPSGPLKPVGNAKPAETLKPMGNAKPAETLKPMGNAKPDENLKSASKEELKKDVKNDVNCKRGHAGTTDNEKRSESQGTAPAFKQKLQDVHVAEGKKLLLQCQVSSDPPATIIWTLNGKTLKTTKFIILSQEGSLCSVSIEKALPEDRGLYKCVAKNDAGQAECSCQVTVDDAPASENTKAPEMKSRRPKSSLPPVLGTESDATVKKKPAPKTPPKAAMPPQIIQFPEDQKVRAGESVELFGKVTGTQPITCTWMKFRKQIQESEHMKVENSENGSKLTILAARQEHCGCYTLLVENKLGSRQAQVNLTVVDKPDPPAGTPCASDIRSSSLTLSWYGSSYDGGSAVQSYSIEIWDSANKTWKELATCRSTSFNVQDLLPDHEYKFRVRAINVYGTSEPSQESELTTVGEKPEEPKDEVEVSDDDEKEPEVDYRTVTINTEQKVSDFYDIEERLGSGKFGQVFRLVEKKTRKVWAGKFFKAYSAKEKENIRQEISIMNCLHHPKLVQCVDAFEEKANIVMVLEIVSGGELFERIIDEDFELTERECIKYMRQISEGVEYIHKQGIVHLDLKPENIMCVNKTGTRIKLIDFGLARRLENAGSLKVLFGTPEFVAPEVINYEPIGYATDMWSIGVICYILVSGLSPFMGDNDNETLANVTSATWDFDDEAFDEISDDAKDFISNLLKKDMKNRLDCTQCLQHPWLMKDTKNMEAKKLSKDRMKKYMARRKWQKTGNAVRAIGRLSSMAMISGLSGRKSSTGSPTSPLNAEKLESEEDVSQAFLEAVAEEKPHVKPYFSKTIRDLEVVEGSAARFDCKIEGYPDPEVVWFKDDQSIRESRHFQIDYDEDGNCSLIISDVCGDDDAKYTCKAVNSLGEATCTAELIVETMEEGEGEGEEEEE
# MSK1 = MSK1 (Homo sapiens, UniProt O75582); experiment: Kinase profiling MSK1
# Sequence of MSK1 (O75582 whole entry, species assumed): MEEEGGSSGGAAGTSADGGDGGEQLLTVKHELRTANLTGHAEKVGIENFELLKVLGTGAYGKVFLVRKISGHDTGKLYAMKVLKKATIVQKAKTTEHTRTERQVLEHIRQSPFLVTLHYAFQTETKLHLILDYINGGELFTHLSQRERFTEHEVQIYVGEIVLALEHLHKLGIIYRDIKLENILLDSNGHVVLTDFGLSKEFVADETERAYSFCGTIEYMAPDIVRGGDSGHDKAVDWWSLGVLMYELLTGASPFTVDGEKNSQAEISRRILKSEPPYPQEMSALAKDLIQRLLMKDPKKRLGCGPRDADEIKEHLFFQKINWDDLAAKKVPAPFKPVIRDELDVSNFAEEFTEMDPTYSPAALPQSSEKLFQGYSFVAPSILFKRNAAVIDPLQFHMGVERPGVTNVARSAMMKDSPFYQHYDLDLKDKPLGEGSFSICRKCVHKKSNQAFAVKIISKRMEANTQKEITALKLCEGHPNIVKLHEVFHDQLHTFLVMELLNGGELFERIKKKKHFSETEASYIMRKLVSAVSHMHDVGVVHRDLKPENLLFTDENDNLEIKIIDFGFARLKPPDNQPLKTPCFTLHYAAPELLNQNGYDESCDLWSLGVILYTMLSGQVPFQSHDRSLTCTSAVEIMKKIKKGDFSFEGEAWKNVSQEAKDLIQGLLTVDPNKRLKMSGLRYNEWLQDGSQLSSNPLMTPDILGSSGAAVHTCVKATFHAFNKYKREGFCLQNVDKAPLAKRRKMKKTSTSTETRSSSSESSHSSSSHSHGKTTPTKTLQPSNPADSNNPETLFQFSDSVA
# Excerpt: as §1
# PDK1 = target: T4, PDK1 (Homo sapiens, UniProt O15530); experiment: Kinase profiling PDK1
# T4 sequence (O15530 1-556): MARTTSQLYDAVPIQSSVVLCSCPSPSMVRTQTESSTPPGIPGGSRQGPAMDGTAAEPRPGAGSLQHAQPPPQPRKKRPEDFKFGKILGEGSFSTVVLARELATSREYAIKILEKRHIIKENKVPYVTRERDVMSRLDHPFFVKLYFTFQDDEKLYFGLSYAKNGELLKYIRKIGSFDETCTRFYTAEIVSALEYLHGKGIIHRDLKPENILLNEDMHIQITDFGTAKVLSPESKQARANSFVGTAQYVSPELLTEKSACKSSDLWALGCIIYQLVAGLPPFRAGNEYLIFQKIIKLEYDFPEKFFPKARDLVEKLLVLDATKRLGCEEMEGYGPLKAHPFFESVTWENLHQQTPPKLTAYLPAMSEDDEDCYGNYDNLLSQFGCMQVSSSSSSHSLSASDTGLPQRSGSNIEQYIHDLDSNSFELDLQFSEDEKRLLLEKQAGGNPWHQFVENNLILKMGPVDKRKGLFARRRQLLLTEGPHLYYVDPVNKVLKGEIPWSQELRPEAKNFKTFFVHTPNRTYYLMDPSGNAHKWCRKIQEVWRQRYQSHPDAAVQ
# Excerpt: as §1
# PRK2 = PRK2 (Homo sapiens, UniProt Q16513); experiment: Kinase profiling PRK2
# Sequence of PRK2 (Q16513 whole entry, species assumed): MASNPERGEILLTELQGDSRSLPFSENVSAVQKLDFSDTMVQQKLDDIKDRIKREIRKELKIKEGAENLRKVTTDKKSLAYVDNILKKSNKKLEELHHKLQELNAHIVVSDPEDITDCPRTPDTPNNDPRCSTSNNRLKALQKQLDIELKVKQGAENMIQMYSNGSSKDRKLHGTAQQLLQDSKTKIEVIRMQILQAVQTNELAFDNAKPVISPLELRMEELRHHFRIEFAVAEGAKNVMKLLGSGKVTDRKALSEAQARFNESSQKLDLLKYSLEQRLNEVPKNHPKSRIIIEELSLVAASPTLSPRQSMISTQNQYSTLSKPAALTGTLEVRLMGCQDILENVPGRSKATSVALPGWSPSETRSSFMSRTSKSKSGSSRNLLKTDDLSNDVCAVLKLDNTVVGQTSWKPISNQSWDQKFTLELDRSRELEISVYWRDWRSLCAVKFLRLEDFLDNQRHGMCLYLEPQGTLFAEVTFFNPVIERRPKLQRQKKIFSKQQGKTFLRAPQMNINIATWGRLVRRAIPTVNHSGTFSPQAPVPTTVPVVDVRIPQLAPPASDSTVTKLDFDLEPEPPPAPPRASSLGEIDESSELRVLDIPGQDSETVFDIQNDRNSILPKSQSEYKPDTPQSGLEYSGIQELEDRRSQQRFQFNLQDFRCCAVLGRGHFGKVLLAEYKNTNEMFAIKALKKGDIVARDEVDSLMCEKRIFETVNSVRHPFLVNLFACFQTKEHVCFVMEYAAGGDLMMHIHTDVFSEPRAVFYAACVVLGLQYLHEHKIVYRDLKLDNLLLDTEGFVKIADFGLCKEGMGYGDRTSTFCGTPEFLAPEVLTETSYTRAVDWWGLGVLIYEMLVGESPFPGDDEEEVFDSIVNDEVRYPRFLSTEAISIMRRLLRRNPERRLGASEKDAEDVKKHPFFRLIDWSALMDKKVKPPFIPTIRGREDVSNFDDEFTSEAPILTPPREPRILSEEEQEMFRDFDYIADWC
# Excerpt: as §1
# [1] = 100 micromolar inhibitor concentration, 100 is no change
# [2] = 100 micromolar inhibitor, 100 = no change
SMILES,"residual kinase activity, MST2 (MST2; [1])","residual kinase activity, IGF-1R (IGF-1R; [1])","residual kinase activity, HER4 (HER4; [1])","residual kinase activity, JNK1 (JNK1; [1])","residual kinase activity, MLK3 (MLK3; [1])","residual kinase activity, PAK4 (PAK4; [1])","residual kinase activity, SYK (SYK; [1])","residual kinase activity, IRAK4 (IRAK4; [1])","residual kinase activity, TAK1 (TAK1; [1])","residual kinase activity, S6K1 (S6K1; [1])","residual kinase activity, SmMLCK (SmMLCK; [1])","residual kinase activity, MSK1 (MSK1; [1])","residual kinase activity, PDK1 (PDK1; [1])","residual kinase activity, PRK2 (PRK2; [1])",also measured
COC(=O)c1cccc(C(=O)Nc2nc3cc(OC)ccc3s2)c1 [Compound 03-108],77,123,99,93,76,100,96,63,81,95,79,88,101,100,
COc1ccc2sc(NC(=O)c3cccc(C(N)=O)c3)nc2c1 [Compound 03-113],119,104,103,86,73,109,108,58,35,79,83,65,101,98,
N#Cc1ccc2nc(NC(=O)c3ccccc3)sc2c1 [Compound 03-106],103,131,82,84,56,94,93,70,37,78,94,64,106,105,
COc1ccc2nc(NC(=O)c3ccccc3)sc2c1 [Compound 03-98],86,104,73,95,20,37,109,46,60,76,75,90,101,91,
CC(=O)Nc1nc2ccc(F)cc2s1 [Compound 03-94],91,92,101,82,46,66,96,44,26,67,67,88,87,80,
O=C(Nc1nc2ccc(C(F)(F)F)cc2s1)c1ccccc1 [Compound 03-99],93,85,85,86,72,154,120,70,95,86,89,70,84,85,
COC(=O)c1cccc(C(=O)Nc2nc3ccc(F)cc3s2)c1 [Compound 03-110],88,96,107,98,68,83,79,96,68,91,55,77,123,85,
COc1ccc2nc(C(=O)Nc3ccccc3)sc2c1 [Compound 13-03],,,,,,,,,,,,,,,"residual kinase activity, MST2 (MST2; [2]): 107; residual kinase activity, IGF-1R (IGF-1R; [2]): 104; residual kinase activity, HER4 (HER4; [2]): 130; residual kinase activity, JNK1 (JNK1; [2]): 88; residual kinase activity, MLK3 (MLK3; [2]): 89; residual kinase activity, PAK4 (PAK4; [2]): 58; residual kinase activity, SYK (SYK; [2]): 37; residual kinase activity, IRAK4 (IRAK4; [2]): 93; residual kinase activity, TAK1 (TAK1; [2]): 96; residual kinase activity, S6K1 (S6K1; [2]): 90; residual kinase activity, SmMLCK (SmMLCK; [2]): 85; residual kinase activity, MSK1 (MSK1; [2]): 97; residual kinase activity, PDK1 (PDK1; [2]): 113; residual kinase activity, PRK2 (PRK2; [2]): 105"
O=C(Nc1nc2ccc(F)cc2s1)c1ccccc1 [Compound 03-92],110,88,90,94,49,111,117,72,79,79,68,81,91,95,
COc1ccc2sc(NC(=O)c3ccccc3)nc2c1 [Compound 03-95],95,100,81,90,40,107,83,57,45,77,48,67,89,84,
